# Experimental data: US7358250B2, “Pyrrolo[2,3-d]pyrimidines that modulate ACK1 activity” (Amgen Inc., priority 2004, dated 2008)
# Columns and labels:
# LCK = biological target: T1, LCK (Homo sapiens, UniProt P06239); experiment: LCK-Homogeneous Time Resolved Fluorescent (HTRF) Kinase Assay; type: biochemical; conditions: LCK KD GST (225-509)
# T1 construct: 15 μL of LCK KD GST (225-509) for a final volume of 40 μL; GST
# Protocol: The LCK HTRF assay begins with LCK in the presence of ATP phosphorylating the biotinylated peptide Gastrin. The reaction incubates for 90 min. To quench the assay detection reagents are added which both stop the reaction by diluting out the enzyme and chelating the metals due to the presence of EDTA. Once the detection reagents are added the assay incubates for 30 min to allow for equilibration of the detection reagents.
# The final concentration of gastrin is 1.2 μM. The final concentration of ATP is 0.5 μM (Km app=[…]) and the final concentration of LCK is […]. Buffer conditions are as follows: 50 mM HEPES pH 7.5, 50 mM NaCl, 20 mM MgCl, 5 mM MnCl, 2 mM DTT, 0.05% BSA.
# The assay is quenched and stopped with 160 μL of detection reagent. Detection reagents are as follows: Buffer made of 50 mM Tris, pH 7.5, 100 mM NaCl, 3 mM EDTA, 0.05% BSA, 0.1% Tween20. Added to this buffer prior to reading is Steptavidin allophycocyanin (SA-APC) at a final conc in the assay of 0.0004 mg/mL, and europilated anti-phosphotyrosine Ab (Eu-anti-PY) at a final conc of 0.025 nM.
# The assay plate is read in either a Discovery or a RubyStar. The eu-anti-PY is excited at 320 nm and emits at 615 nm to excite the SA-APC which in turn emits at 655 nm. The ratio of SA-APC at 655 nm (excited due to close proximity to the Eu-anti-PY because of phosphorylation of the peptide) to free Eu-anti-PY at 615 nm will give substrate phosphorylation.
# C8 cells = experiment: ACK1 Cell Based Assay, test (C8) cell line; conditions: 0.125% FCS, 20 to 24 h, cell viability (Cytotox One kit)
# Protocol: The ACK1 cell based assay is designed to find inhibitors of ACK1 kinase activity which would be prime candidates for the development of anticancer drugs. […] This dependency was confirmed utilizing ACK1 specific siRNAs.
# For this assay, test (C8) and control (HeLa) cell lines are seeded in 96 well tissue culture plates (BD Falcon) at a density of 2 to 4×10^4 in DMEM/F12 (C8) or DMEM (HeLa) with 0.125% FCS in the presence of ACK1 inhibitors (final DMSO concentration is 0.5%, all tissue culture media are from Cellgro). After 20 to 24 h incubation at 37° C. and 5% CO2, cell viability is determined using the Cytotox One kit (Promega) according to the manufacturer's instructions.
# ACK1 = biological target: T2, ACK1 (Homo sapiens, UniProt Q07912); experiment: ACK1 Enzymatic Assay; type: biochemical; conditions: 5 μM ATP, ELISA phosphotyrosine readout
# T2 construct: a fusion of an N-terminal (His)6 Tag with amino acids 117 to 489 of ACK1; (His)6 (N); made in house; host or cells: baculovirus infected Hi-5 insect cells
# T2 sequence (Q07912 117-489): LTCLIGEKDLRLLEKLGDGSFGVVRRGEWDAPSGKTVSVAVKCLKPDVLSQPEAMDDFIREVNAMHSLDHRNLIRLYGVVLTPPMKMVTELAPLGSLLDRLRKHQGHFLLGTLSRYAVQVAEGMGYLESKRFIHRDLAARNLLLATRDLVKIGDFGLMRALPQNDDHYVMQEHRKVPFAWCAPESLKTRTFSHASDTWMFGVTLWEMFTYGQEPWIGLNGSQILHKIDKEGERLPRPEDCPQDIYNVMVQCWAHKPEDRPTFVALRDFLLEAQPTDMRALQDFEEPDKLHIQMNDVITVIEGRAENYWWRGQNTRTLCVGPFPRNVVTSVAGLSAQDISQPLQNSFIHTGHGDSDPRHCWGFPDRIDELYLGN
# Protocol: IC50 values of inventive compounds may be assessed as follows. […] The substrate of for the reaction is ACK1 itself (autophosphorylation) and poly-Glutamic acid-Tyrosine (PGT (4:1), Sigma catalog #PO275). The PGT is coated to Nunc 96 well plates at 80 μg/mL overnight at 4° C. […] Test compounds are added in 10 μL DMSO, and the reaction is started by addition of 10 μL kinase in assay buffer. The reaction proceeds 2 h at room temperature. Next the plates are washed four times, and the level of tyrosine phosphorylation in a given well is quantified by standard ELISA assay utilizing a phosphotyrosine antibody (PY20, Pierce).
# T1 sequence (P06239 225-509): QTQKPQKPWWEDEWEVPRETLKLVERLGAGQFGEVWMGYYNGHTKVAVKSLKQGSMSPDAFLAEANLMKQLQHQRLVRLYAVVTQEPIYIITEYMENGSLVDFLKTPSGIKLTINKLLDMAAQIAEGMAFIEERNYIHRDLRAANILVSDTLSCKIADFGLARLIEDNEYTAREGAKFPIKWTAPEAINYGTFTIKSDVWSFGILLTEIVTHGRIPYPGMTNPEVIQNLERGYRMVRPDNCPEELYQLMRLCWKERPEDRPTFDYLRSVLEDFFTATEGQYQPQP
SMILES,Ki (LCK),IC50 (C8 cells),Ki (ACK1)
"CO[C@@H]1CC[C@H]1CNc1ncnc2[nH]c(-c3ccc(OCCN(C)C)cc3)c(-c3ccccc3)c12 (mixture of isomers) [Example 35, trans/cis-{6-[4-(2-Dimethylamino-ethoxy)-phenyl]-5-phenyl-7H-pyrrolo[2,3-d]pyrimidin-4-yl}-(2-methoxy-cyclobutylmethyl)-amine]",< 0.01 µM,> 0.1 µM,0.01 to 0.1 µM
"CN(C)CCOc1ccc(-c2[nH]c3ncnc(NC[C@@H]4CC[C@H]4O)c3c2-c2ccccc2)cc1 (mixture of isomers) [Example 36, trans/cis-2-({6-[4-(2-Dimethylamino-ethoxy)-phenyl]-5-phenyl-7H-pyrrolo[2,3-d]pyrimidin-4-ylamino}-methyl)-cyclobutanol]",–,> 0.1 µM,0.01 to 0.1 µM
"CN(C)CCOc1ccc(-c2[nH]c3ncnc(NC[C@H]4CCC[C@H]4O)c3c2-c2ccccc2)cc1 (relative stereo) [Example 37, cis-2-({6-[4-(2-Dimethylamino-ethoxy)-phenyl]-5-phenyl-7H-pyrrolo[2,3-d]pyrimidin-4-ylamino}-methyl)-cyclopentanol]",< 0.01 µM,> 0.1 µM,–
"CN(C)CCOc1ccc(-c2[nH]c3ncnc(NC[C@H]4CCC[C@H]4N)c3c2-c2ccccc2)cc1 (relative stereo) [Example 38, cis-(2-Amino-cyclopentylmethyl)-{6-[4-(2-dimethylamino-ethoxy)-phenyl]-5-phenyl-7H-pyrrolo[2,3-d]pyrimidin-4-yl}-amine]",0.01 to 0.1 µM,> 0.1 µM,> 0.1 µM
"CN(C)CCOc1ccc(-c2[nH]c3ncnc(NC[C@H]4CCC[C@H]4NS(C)(=O)=O)c3c2-c2ccccc2)cc1 (relative stereo) [Example 39, cis-N-[2-({6-[4-(2-Dimethylamino-ethoxy)-phenyl]-5-phenyl-7H-pyrrolo[2,3-d]pyrimidin-4-ylamino}-methyl)-cyclopentyl]-methanesulfonamide]",< 0.01 µM,> 0.1 µM,> 0.1 µM
"CN(C)CCOc1ccc(-c2[nH]c3ncnc(NC[C@@H]4CCC[C@H]4N)c3c2-c2ccccc2)cc1 (relative stereo) [Example 40, trans-(2-Amino-cyclopentylmethyl)-{6-[4-(2-dimethylamino-ethoxy)-phenyl]-5-phenyl-7H-pyrrolo[2,3-d]pyrimidin-4-yl}-amine]",< 0.01 µM,> 0.1 µM,> 0.1 µM
"CN(C)CCOc1ccc(-c2[nH]c3ncnc(NC[C@@H]4CCC[C@H]4NS(C)(=O)=O)c3c2-c2ccccc2)cc1 (relative stereo) [Example 41, trans-N-[2-({6-[4-(2-Dimethylamino-ethoxy)-phenyl]-5-phenyl-7H-pyrrolo[2,3-d]pyrimidin-4-ylamino}-methyl)-cyclopentyl]-methanesulfonamide]",< 0.01 µM,> 0.1 µM,0.01 to 0.1 µM
"c1ccc(-c2[nH]c3ncnc(NCCN4CCOCC4)c3c2-c2ccccc2)cc1 [Example 1, (5,6-Diphenyl-7H-pyrrolo[2,3-d]pyrimidin-4-yl)-(2-morpholin-4-ylethyl)-amine]",0.01 to 0.1 µM,> 0.1 µM,0.01 to 0.1 µM
"c1ccc(-c2[nH]c3ncnc(NCC4CCCO4)c3c2-c2ccccc2)cc1 (stereo not drawn) [Example 2, (5,6-Diphenyl-7H-pyrrolo[2,3-d]pyrimidin-4-yl)-(tetrahydrofuran-2-ylmethyl)-amine]",< 0.01 µM,> 0.1 µM,< 0.01 µM
"c1ccc(-c2[nH]c3ncnc(NCC4CCCS4)c3c2-c2ccccc2)cc1 (stereo not drawn) [Example 3, (5,6-Diphenyl-7H-pyrrolo[2,3-d]pyrimidin-4-yl)-(tetrahydrothiophen-2-ylmethyl)-amine]",< 0.01 µM,> 0.1 µM,0.01 to 0.1 µM
"c1ccc(-c2[nH]c3ncnc(NCC4CCCCO4)c3c2-c2ccccc2)cc1 (stereo not drawn) [Example 4, (5,6-Diphenyl-7H-pyrrolo[2,3-d]pyrimidin-4-yl)-(tetrahydropyran-2-ylmethyl) amine]",< 0.01 µM,> 0.1 µM,0.01 to 0.1 µM
"CN(C)S(=O)(=O)c1ccc(-c2[nH]c3ncnc(NC[C@@H]4CCCO4)c3c2-c2ccccc2)cc1 [Example 5, N,N-Dimethyl-4-{5-phenyl-4-[(tetrahydro-furan-2-ylmethyl)-amino]-7H-pyrrolo[2,3-d]pyrimidin-6-yl}-benzenesulfonamide]",< 0.01 µM,0.01 to 0.1 µM,< 0.01 µM
"CNS(=O)(=O)c1ccc(-c2[nH]c3ncnc(NCC4CCCO4)c3c2-c2ccccc2)cc1 (stereo not drawn) [Example 6, N-Methyl-4-{5-phenyl-4-[(tetrahydrofuran-2-ylmethyl)-amino]-7H-pyrrolo[2,3-d]pyrimidin-6-yl}-benzenesulfonamide]",< 0.01 µM,0.01 to 0.1 µM,< 0.01 µM
"CCN(CC)S(=O)(=O)c1ccc(-c2[nH]c3ncnc(NCC4CCCO4)c3c2-c2ccccc2)cc1 (stereo not drawn) [Example 7, N,N-Diethyl-4-{5-phenyl-4-[(tetrahydrofuran-2-ylmethyl)-amino]-7H-pyrrolo[2,3-d]pyrimidin-6-yl}-benzenesulfonamide]",< 0.01 µM,> 0.1 µM,< 0.01 µM
"COCCN(CCOC)S(=O)(=O)c1ccc(-c2[nH]c3ncnc(NCC4CCCO4)c3c2-c2ccccc2)cc1 (stereo not drawn) [Example 8, N,N-Bis-(2-methoxyethyl)-4-{5-phenyl-4-[(tetrahydrofuran-2-ylmethyl)-amino]-7H-pyrrolo[2,3-d]pyrimidin-6-yl}-benzenesulfonamide]",< 0.01 µM,> 0.1 µM,< 0.01 µM
"COCCNS(=O)(=O)c1ccc(-c2[nH]c3ncnc(NCC4CCCO4)c3c2-c2ccccc2)cc1 (stereo not drawn) [Example 9, N-(2-Methoxyethyl)-4-{5-phenyl-4-[(tetrahydrofuran-2-ylmethyl)-amino]-7H-pyrrolo[2,3-d]pyrimidin-6-yl}-benzenesulfonamide]",< 0.01 µM,0.01 to 0.1 µM,< 0.01 µM
"O=S(=O)(c1ccc(-c2[nH]c3ncnc(NCC4CCCO4)c3c2-c2ccccc2)cc1)N1CCOCC1 (stereo not drawn) [Example 10, {6-[4-(Morpholin-4-sulfonyl)-phenyl]-5-phenyl-7H-pyrrolo[2,3-d]pyrimidin-4-yl}-(tetrahydrofuran-2-ylmethyl)-amine]",< 0.01 µM,> 0.1 µM,< 0.01 µM
"O=S(=O)(NCCN1CCOCC1)c1ccc(-c2[nH]c3ncnc(NCC4CCCO4)c3c2-c2ccccc2)cc1 (stereo not drawn) [Example 11, N-(2-Morpholin-4-yl-ethyl)-4-{5-phenyl-4-[(tetrahydrofuran-2-ylmethyl)-amino]-7H-pyrrolo[2,3-d]pyrimidin-6-yl}-benzenesulfonamide]",< 0.01 µM,0.01 to 0.1 µM,< 0.01 µM
"C=CCNS(=O)(=O)c1ccc(-c2[nH]c3ncnc(NCC4CCCO4)c3c2-c2ccccc2)cc1 (stereo not drawn) [Example 12, N-Allyl-4-{5-phenyl-4-[(tetrahydro-furan-2-ylmethyl)-amino]-7H-pyrrolo[2,3-d]pyrimidin-6-yl}-benzenesulfonamide]",< 0.01 µM,> 0.1 µM,< 0.01 µM
"CC(C)(C)OC(=O)CNS(=O)(=O)c1ccc(-c2[nH]c3ncnc(NCC4CCCO4)c3c2-c2ccccc2)cc1 (stereo not drawn) [Example 13, (4-{5-Phenyl-4-[(tetrahydrofuran-2-ylmethyl)-amino]-7H-pyrrolo[2,3-d]pyrimidin-6-yl}-benzenesulfonylamino)-acetic acid tert-butyl ester]",0.01 to 0.1 µM,> 0.1 µM,0.01 to 0.1 µM
"CN(C)CCOc1ccc(-c2[nH]c3ncnc(NCC4SCCS4)c3c2-c2ccccc2)cc1 [Example 33, {6-[4-(2-Dimethylaminoethoxy)-phenyl]-5-phenyl-7H-pyrrolo[2,3-d]pyrimidin-4-yl}-[1,3]dithiolan-2-ylmethyl-amine]",< 0.01 µM,< 0.01 µM,–
